# What was measured:
# human TLR7 = target: T1, human TLR7 (Homo sapiens, UniProt Q9NYK1); experiment: TLR7 inhibition reporter assay (HEK-Blue SEAP); type: cell-based; conditions: HEK-Blue cells overexpressing human TLR7, gardiquimod 7.5 μM, 22 hour incubation
# T1 construct: host or cells: HEK-Blue cells
# T1 sequence (Q9NYK1 27-1049): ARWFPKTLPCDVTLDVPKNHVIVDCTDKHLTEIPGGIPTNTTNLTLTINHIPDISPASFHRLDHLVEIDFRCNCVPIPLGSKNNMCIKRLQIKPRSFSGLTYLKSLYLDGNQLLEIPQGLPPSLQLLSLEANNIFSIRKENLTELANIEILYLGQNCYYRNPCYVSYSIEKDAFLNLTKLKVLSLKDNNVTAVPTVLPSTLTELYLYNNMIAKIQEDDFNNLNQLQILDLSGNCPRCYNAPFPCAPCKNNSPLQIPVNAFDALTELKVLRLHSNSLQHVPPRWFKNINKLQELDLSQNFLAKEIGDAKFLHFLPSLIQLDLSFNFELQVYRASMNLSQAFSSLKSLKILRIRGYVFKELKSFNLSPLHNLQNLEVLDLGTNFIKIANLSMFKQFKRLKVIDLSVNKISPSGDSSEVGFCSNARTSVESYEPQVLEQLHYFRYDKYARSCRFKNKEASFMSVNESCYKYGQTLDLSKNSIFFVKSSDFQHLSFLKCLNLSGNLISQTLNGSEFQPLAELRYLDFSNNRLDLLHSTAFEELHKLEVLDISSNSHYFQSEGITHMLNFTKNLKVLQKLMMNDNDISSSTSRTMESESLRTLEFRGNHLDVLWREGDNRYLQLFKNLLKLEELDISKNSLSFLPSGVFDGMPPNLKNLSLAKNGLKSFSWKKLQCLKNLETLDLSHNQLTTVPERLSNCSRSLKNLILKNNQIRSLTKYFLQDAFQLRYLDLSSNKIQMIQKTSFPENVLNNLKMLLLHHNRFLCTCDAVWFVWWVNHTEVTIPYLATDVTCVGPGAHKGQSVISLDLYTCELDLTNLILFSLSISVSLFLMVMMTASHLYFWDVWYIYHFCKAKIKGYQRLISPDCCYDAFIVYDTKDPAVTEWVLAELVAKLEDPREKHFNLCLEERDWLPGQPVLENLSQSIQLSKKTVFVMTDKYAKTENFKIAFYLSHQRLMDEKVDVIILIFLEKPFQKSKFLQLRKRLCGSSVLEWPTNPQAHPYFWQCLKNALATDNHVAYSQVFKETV
# How it was run: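 Cells (15000/well for TLR7, 20,000 for TLR8) were treated with compounds over 0.05 nM-50 μM final. After 22 h at 37° C, 5% CO2, SEAP was measured with HEK-Blue Detection reagent; percent inhibition was taken as reduction of agonist-plus-DMSO signal relative to a known inhibitor.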
# human TLR9 = target: T2, human TLR9 (Homo sapiens, UniProt Q9NR96); experiment: TLR9 inhibition reporter assay (HEK-Blue SEAP); type: cell-based; conditions: HEK-Blue cells overexpressing human TLR9, ODN2006 5 nM, 22 hour incubation
# T2 construct: host or cells: HEK-Blue cells
# T2 sequence (Q9NR96 26-1032): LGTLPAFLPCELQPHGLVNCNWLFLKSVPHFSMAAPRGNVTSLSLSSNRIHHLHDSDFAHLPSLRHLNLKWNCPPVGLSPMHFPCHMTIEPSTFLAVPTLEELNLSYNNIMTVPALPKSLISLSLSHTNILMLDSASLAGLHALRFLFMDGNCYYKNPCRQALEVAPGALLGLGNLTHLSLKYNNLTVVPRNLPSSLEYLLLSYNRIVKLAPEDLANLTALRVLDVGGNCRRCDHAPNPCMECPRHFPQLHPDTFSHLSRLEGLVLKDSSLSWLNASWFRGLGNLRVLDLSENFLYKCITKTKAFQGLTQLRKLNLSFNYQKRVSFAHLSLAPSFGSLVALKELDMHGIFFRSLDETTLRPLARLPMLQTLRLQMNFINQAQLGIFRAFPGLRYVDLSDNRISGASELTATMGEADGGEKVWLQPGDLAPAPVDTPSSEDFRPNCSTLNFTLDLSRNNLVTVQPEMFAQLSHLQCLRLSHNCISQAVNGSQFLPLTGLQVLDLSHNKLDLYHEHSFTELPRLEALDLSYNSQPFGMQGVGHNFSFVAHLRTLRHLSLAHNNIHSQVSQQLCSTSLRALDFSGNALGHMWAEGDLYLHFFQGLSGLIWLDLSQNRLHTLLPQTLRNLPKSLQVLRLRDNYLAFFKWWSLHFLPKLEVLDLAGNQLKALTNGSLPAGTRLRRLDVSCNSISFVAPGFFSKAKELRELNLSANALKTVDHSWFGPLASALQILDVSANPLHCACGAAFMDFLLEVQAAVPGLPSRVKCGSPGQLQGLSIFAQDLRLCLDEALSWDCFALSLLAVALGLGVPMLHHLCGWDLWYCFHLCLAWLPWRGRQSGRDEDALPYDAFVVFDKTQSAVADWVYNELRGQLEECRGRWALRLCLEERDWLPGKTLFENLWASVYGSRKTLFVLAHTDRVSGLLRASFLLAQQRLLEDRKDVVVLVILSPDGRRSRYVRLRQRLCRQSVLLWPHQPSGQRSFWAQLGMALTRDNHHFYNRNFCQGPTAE
# How it was run: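 Human TLR7/8/9 HEK-Blue reporter lines; dose range 0.05 nM–50 μM; 30 min RT preincubation; stimulus gardiquimod 7.5 μM / R848 15.9 μM / ODN2006 5 nM respectively; 22 h, 37 °C; SEAP detected colorimetrically.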
SMILES,IC50 (human TLR7),IC50 (human TLR9)
"COc1cc(-c2cc3[nH]c(=O)n([C@H]4CCCN(CC5CCOC5)C4)c3cc2C(C)C)cn2ncnc12 (stereo partly drawn) [Example 126, 6-isopropyl-5-(8-methoxy-[1,2,4]triazolo[1,5-a]pyridin-6-yl)-1-((3S)-1-((tetrahydrofuran-3-yl)methyl)piperidin-3-yl)-1,3-dihydro-2H-benzo[d]imidazol-2-one]",81.8 nM,27800 nM
"COc1cc(-c2cc3[nH]c(=O)n([C@H]4CCCN(CC5CC5)C4)c3cc2C(C)C)cn2ncnc12 [Example 127, (S)-1-(1-(cyclopropylmethyl)piperidin-3-yl)-6-isopropyl-5-(8-methoxy-[1,2,4]triazolo[1,5-a]pyridin-6-yl)-1,3-dihydro-2H-benzo[d]imidazol-2-one]",14.3 nM,15600 nM
"COc1cc(-c2cc3[nH]c(=O)n([C@H]4CCCN(CC(C)C)C4)c3cc2C(C)C)cn2ncnc12 [Example 129, (S)-1-(1-isobutylpiperidin-3-yl)-6-isopropyl-5-(8-methoxy-[1,2,4]triazolo[1,5-a]pyridin-6-yl)-1,3-dihydro-2H-benzo[d]imidazol-2-one]",12.8 nM,3690 nM
"CCC(CC)CN1CCC[C@H](n2c(=O)[nH]c3cc(-c4cc(OC)c5ncnn5c4)c(C(C)C)cc32)C1 [Example 130, (S)-1-(1-(2-ethylbutyl)piperidin-3-yl)-6-isopropyl-5-(8-methoxy-[1,2,4]triazolo[1,5-a]pyridin-6-yl)-1,3-dihydro-2H-benzo[d]imidazol-2-one]",31.1 nM,9610 nM
"COc1cc(-c2cc3[nH]c(=O)n([C@H]4CCCN(CCC(C)C)C4)c3cc2C(C)C)cn2ncnc12 [Example 132, (S)-1-(1-isopentylpiperidin-3-yl)-6-isopropyl-5-(8-methoxy-[1,2,4]triazolo[1,5-a]pyridin-6-yl)-1,3-dihydro-2H-benzo[d]imidazol-2-one]",18.3 nM,11000 nM
"COc1cc(-c2cc3[nH]c(=O)n([C@H]4CCCN(CC5CCC5)C4)c3cc2C(C)C)cn2ncnc12 [Example 133, (S)-1-(1-(cyclobutylmethyl)piperidin-3-yl)-6-isopropyl-5-(8-methoxy-[1,2,4]triazolo[1,5-a]pyridin-6-yl)-1,3-dihydro-2H-benzo[d]imidazol-2-one]",17.3 nM,7140 nM
"CCCN1CCC[C@@H](n2c(=O)[nH]c3cc(-c4cc(OC)c5ncnn5c4)c(C(C)C)cc32)C1 [Example 134, (R)-6-isopropyl-5-(8-methoxy-[1,2,4]triazolo[1,5-a]pyridin-6-yl)-1-(1-propylpiperidin-3-yl)-1,3-dihydro-2H-benzo[d]imidazol-2-one]",1.98 nM,9330 nM
"COc1cc(-c2cc3[nH]c(=O)n([C@@H]4CCCN(C5COC5)C4)c3cc2C(C)C)cn2ncnc12 [Example 135, (R)-6-isopropyl-5-(8-methoxy-[1,2,4]triazolo[1,5-a]pyridin-6-yl)-1-(1-(oxetan-3-yl)piperidin-3-yl)-1,3-dihydro-2H-benzo[d]imidazol-2-one]",26.3 nM,> 50000 nM
"COc1cc(-c2cc3[nH]c(=O)n([C@@H]4CCCN(C)C4)c3cc2C(C)C)cn2ncnc12 [Example 136, (R)-6-isopropyl-5-(8-methoxy-[1,2,4]triazolo[1,5-a]pyridin-6-yl)-1-(1-methylpiperidin-3-yl)-1,3-dihydro-2H-benzo[d]imidazol-2-one]",2.18 nM,14900 nM
"COc1cc(-c2cc3[nH]c(=O)n([C@@H]4CCCN(C(C)C)C4)c3cc2C(C)C)cn2ncnc12 [Example 137, (R)-6-isopropyl-1-(1-isopropylpiperidin-3-yl)-5-(8-methoxy-[1,2,4]triazolo[1,5-a]pyridin-6-yl)-1,3-dihydro-2H-benzo[d]imidazol-2-one]",0.74 nM,7070 nM
"CCN1CCC[C@@H](n2c(=O)[nH]c3cc(-c4cc(OC)c5ncnn5c4)c(C(C)C)cc32)C1 [Example 138, (R)-1-(1-ethylpiperidin-3-yl)-6-isopropyl-5-(8-methoxy-[1,2,4]triazolo[1,5-a]pyridin-6-yl)-1,3-dihydro-2H-benzo[d]imidazol-2-one]",2.73 nM,17900 nM

# Other lines, results leading:
IC50 (human TLR7),IC50 (human TLR9),SMILES
0.76 nM,7810 nM,"COc1cc(-c2cc3[nH]c(=O)n([C@@H]4CCCN(CC5CCOCC5)C4)c3cc2C(C)C)cn2ncnc12 [Example 139, (R)-6-isopropyl-5-(8-methoxy-[1,2,4]triazolo[1,5-a]pyridin-6-yl)-1-(1-((tetrahydro-2H-pyran-4-yl)methyl)piperidin-3-yl)-1,3-dihydro-2H-benzo[d]imidazol-2-one]"
1.3 nM,6460 nM,"COc1cc(-c2cc3[nH]c(=O)n([C@@H]4CCCN(CC5CCC5)C4)c3cc2C(C)C)cn2ncnc12 [Example 140, (R)-1-(1-(cyclobutylmethyl)piperidin-3-yl)-6-isopropyl-5-(8-methoxy-[1,2,4]triazolo[1,5-a]pyridin-6-yl)-1,3-dihydro-2H-benzo[d]imidazol-2-one]"
0.12 nM,3880 nM,"COc1cc(-c2cc3[nH]c(=O)n([C@@H]4CCCN(CC(C)C)C4)c3cc2C(C)C)cn2ncnc12 [Example 141, (R)-1-(1-isobutylpiperidin-3-yl)-6-isopropyl-5-(8-methoxy-[1,2,4]triazolo[1,5-a]pyridin-6-yl)-1,3-dihydro-2H-benzo[d]imidazol-2-one]"
0.64 nM,6020 nM,"COc1cc(-c2cc3[nH]c(=O)n([C@@H]4CCCN(CC5CC5)C4)c3cc2C(C)C)cn2ncnc12 [Example 142, (R)-1-(1-(cyclopropylmethyl)piperidin-3-yl)-6-isopropyl-5-(8-methoxy-[1,2,4]triazolo[1,5-a]pyridin-6-yl)-1,3-dihydro-2H-benzo[d]imidazol-2-one]"
3.35 nM,10200 nM,"COc1cc(-c2cc3[nH]c(=O)n([C@@H]4CCCN(C5CCOCC5)C4)c3cc2C(C)C)cn2ncnc12 [Example 143, (R)-6-isopropyl-5-(8-methoxy-[1,2,4]triazolo[1,5-a]pyridin-6-yl)-1-(1-(tetrahydro-2H-pyran-4-yl)piperidin-3-yl)-1,3-dihydro-2H-benzo[d]imidazol-2-one]"
3.7 nM,14300 nM,"Cc1c(-c2cc3[nH]c(=O)n([C@@H]4CCCN(C(C)C)C4)c3cc2C(C)C)cn2ncnc2c1C [Example 145, (R)-5-(7,8-dimethyl-[1,2,4]triazolo[1,5-a]pyridin-6-yl)-6-isopropyl-1-(1-isopropylpiperidin-3-yl)-1,3-dihydro-2H-benzo[d]imidazol-2-one]"
